Experimental findings from US20040037022A1, “Aminoalcohol derivatives” (priority 2000, published 2004) are described below.

One may read the melting point as the temperature, or range, at which the solid turns liquid.

One data set concerns anesthetized dog. Briefly: Effect on the increase in intravesical pressure induced by carbachol in anesthetized dog. The format is in vivo. The following applies: 0.32 mg/kg by intra-duodena route 30 minutes before carbachol (1.8 μg/kg); female Beagle dogs under halothane anesthesia; N = 2; Control 7.0 ± 1.0. The protocol: Effect on the increase in intravesical pressure induced by carbachol in anesthetized dog
Female Beagle dogs weighing 8.0-15.0 kg were fasted for 24 hours and maintained under halothane anesthesia. A 12F Foley catheter was lubricated with water soluble jelly, inserted into the urethral orifice and advanced approximately 10 cm until the balloon tip was placed well inside the bladder. The balloon was then inflated with 5 ml of room air and catheter slowly withdrawn just part the first resistance that is felt at the bladder neck. Urine was completely drained out through the catheter, and 30 ml of biological saline was infused. The catheter was connected to pressure transducer, and intravesical pressure was continuously recorded. The test compound was injected by intra-duodena route at 30 minutes before the administration of carbachol (1.8 μg/kg).

`O=C(Nc1ccc(C[C@@H](CO)NC[C@H](O)COc2ccccc2)cc1)c1ccccc1` [4-(2), N-[4-[(2S)-3-Hydroxy-2-[[(2S)-2-hydroxy-3-phenoxypropyl)amino]propyl]phenyl)benzamide] registered a melting point of 124 to 125 °C.
Regarding `CN(C(=O)c1ccccc1)c1ccc(C[C@@H](CO)NC[C@H](O)COc2ccccc2)cc1` [4-(11), N-[4-[(2S)-3-Hydroxy-2-[[(2S)-2-hydroxy-3-phenoxypropyl]amino]propyl]phenyl]-N-methylbenzamide], the melting point lay in the range of 115 to 116 °C.
Same read-out and setting: with `CCNC(=O)Nc1ccc(C[C@@H](CO)NC[C@H](O)COc2ccccc2)cc1` [Example 2, N-ethyl-N′-[4-[(2S)-3-hydroxy-2-[[(2S)-2-hydroxy-3-phenoxypropyl]amino]-propyl]phenyl]urea] the figure was 129 to 130 °C.
Turning to `O=C(Nc1ccc(C[C@@H](CO)NC[C@H](O)COc2ccccc2)cc1)c1ccc[nH]1` [Test Compound (1), N-[4-[(2S)-3-Hydroxy-2-[[(2S)-2-hydroxy-3-phenoxypropyl)amino]propyl]phenyl]-1H-pyrrole-2-carboxamide], the “Increase in intravesical pressure” value with anesthetized dog was 2.6 ± 0.05 mmHg.
